According to patent publication US8129427B2, “2-phenylethylamino derivatives as calcium and/or sodium channel modulators” (Newron Pharmaceuticals S.p.A., priority 2005, dated 2012):

Test system: maximal electroshock seizures in mice
Experiment: Maximal electroshock test (MES) in mice
Assay type: in vivo, mouse
Conditions: i.v., 5 minutes before testing
Excerpt: Animals and Apparatus: Male CDl mice weighing 25 g were used. The procedure described by White et al. (White H. S., Woodhead J. H., Franklin […]., and Wolf H. H. Antiepileptic Drugs (1995) 4th ed: 99-110, Raven Press, Ltd., New York) was followed. An Ugo Basile electroconvulsive generator (Model ECT UNIT 7801) was used to deliver an electrical stimulus sufficient to produce a hindlimb tonic extensor response in at least 97% of control animals. The stimulus was delivered intra-aurally through clip electrodes in mice (0.7 s of a 40 mA shock, with a pulse train of 80 Hz having a pulse duration of 0.4 ms). […] Ten mice were studied per group. Complete suppression of the hindlimb tonic extensor component of seizures was taken as evidence of anticonvulsant activity.

In the case of `CCCCOc1cccc(CCN(CC(=O)N(C)C)CC2CCOC2)c1.Cl` (racemic) [Example 96, 2-[[2-(3-Butoxy-phenyl)-ethyl]-(tetrahydrofuran-3-ylmethyl)amino]-N,N-dimethyl-acetamide hydrochloride], the “50% Protection” value was “(0.8 mg/kg/iv)”.
